Source: the supplement of paper PMC10307832

What was measured:
Test in all cases: relative viability (nuclei count vs DMSO), 5 days (fraction); higher = more cells survive
Carboplatin + AZD7762 = compound: C1CC(C1)(C(=O)O)C(=O)O.[NH2-].[NH2-].[Pt+2] [Carboplatin] + NC(=O)Nc1cc(-c2cccc(F)c2)sc1C(=O)N[C@H]1CCCNC1 [AZD7762] (partner 0.2 µM)
Outline: (§1)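 Nuclei were stained with Hoechst during a one-step fixation (final 0.05% Triton X-100, 1% formaldehyde, 1 ug/ml Hoechst) carried out 5 days after dosing, then counted on 4× images. The cells, lung cancer lines in 1536-well plates, had been dosed by pin tool the day after seeding with one drug alone or a fixed anchor-drug dose plus five library-drug doses (not always all listed) in √10 steps. Relative viability is the nuclei count in treated wells divided by that in vehicle wells, and each value is the median of duplicate plates.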

MLN4924 + Pictilisib = compound: NS(=O)(=O)OC[C@@H]1C[C@@H](n2ccc3c(N[C@H]4CCc5ccccc54)ncnc32)C[C@@H]1O [MLN4924] + CS(=O)(=O)N1CCN(Cc2cc3nc(-c4cccc5[nH]ncc45)nc(N4CCOCC4)c3s2)CC1 [Pictilisib] (partner 1 µM)
Outline: as §1

Carboplatin + Lapatinib = compound: C1CC(C1)(C(=O)O)C(=O)O.[NH2-].[NH2-].[Pt+2] [Carboplatin] + CS(=O)(=O)CCNCc1ccc(-c2ccc3ncnc(Nc4ccc(OCc5cccc(F)c5)c(Cl)c4)c3c2)o1 [Lapatinib] (partner 2 µM)
Outline: as §1

Carboplatin + Luminespib = compound: C1CC(C1)(C(=O)O)C(=O)O.[NH2-].[NH2-].[Pt+2] [Carboplatin] + CCNC(=O)c1noc(-c2cc(C(C)C)c(O)cc2O)c1-c1ccc(CN2CCOCC2)cc1 [Luminespib] (partner 0.01 µM)
Outline: as §1

Row | Cell Line | relative viability (Carboplatin + AZD7762; first compound 0.08 µM) | relative viability (Carboplatin + AZD7762; first compound 0.253 µM) | relative viability (Carboplatin + AZD7762; first compound 0.8 µM) | relative viability (Carboplatin + AZD7762; first compound 2.53 µM) | relative viability (Carboplatin + AZD7762; first compound 8 µM) | relative viability (MLN4924 + Pictilisib; first compound 0.1265 µM) | relative viability (MLN4924 + Pictilisib; first compound 0.4 µM) | relative viability (MLN4924 + Pictilisib; first compound 1.265 µM) | relative viability (MLN4924 + Pictilisib; first compound 4 µM) | relative viability (Carboplatin + Lapatinib; first compound 0.08 µM) | relative viability (Carboplatin + Lapatinib; first compound 0.253 µM) | relative viability (Carboplatin + Lapatinib; first compound 0.8 µM) | relative viability (Carboplatin + Lapatinib; first compound 2.53 µM) | relative viability (Carboplatin + Lapatinib; first compound 8 µM) | relative viability (Carboplatin + Luminespib; first compound 0.08 µM) | relative viability (Carboplatin + Luminespib; first compound 0.253 µM) | relative viability (Carboplatin + Luminespib; first compound 0.8 µM) | relative viability (Carboplatin + Luminespib; first compound 2.53 µM) | relative viability (Carboplatin + Luminespib; first compound 8 µM) | relative viability (MLN4924 + Pictilisib; first compound 0.04 µM)
1 | CAL-12T | 0.848 | 0.579 | 0.674 | 0.555 | 0.548 | 0.41 | 0.299 | 0.237 | 0.156 | 0.754 | 0.624 | 0.749 | 0.755 | 0.639 | 0.324 | 0.334 | 0.317 | 0.579 | 0.282 | 
2 | NCI-H1993 | 0.973 | 0.899 | 0.864 | 0.871 | 0.695 | 0.681 | 0.7 | 0.647 | 0.643 | 0.834 | 0.843 | 0.909 | 0.791 | 0.853 | 1.13 | 0.812 | 0.818 | 0.884 | 0.698 | 0.701
3 | NCI-H3122 | 1.04 | 1.01 | 0.946 | 0.974 | 0.885 | 0.376 | 0.222 | 0.153 | 0.136 | 1.1 | 1 | 0.981 | 0.953 | 0.995 | 0.102 | 0.0787 | 0.0812 | 0.09 | 0.0968 | 0.591
4 | HCC-827 | 0.245 | 0.204 | 0.213 | 0.182 | 0.223 | 0.641 | 0.808 | 0.382 | 0.311 | 0.236 | 0.175 | 0.18 | 0.187 | 0.224 | 0.653 | 0.675 | 0.441 | 0.452 | 0.3 | 1.12
5 | NCI-H322M | 0.598 | 0.548 | 0.553 | 0.547 | 0.428 | 0.855 | 0.669 | 0.291 | 0.333 | 0.653 | 0.639 | 0.55 | 0.561 | 0.609 | 1.09 | 0.749 | 0.752 | 0.633 | 0.61 | 0.556
6 | NCI-H23 | 0.264 | 0.263 | 0.243 | 0.188 | 0.23 | 0.288 | 0.183 | 0.0988 | 0.141 | 1.16 | 1.25 | 1 | 1.02 | 0.783 | 0.194 | 0.237 | 0.208 | 0.173 | 0.233 | 0.249
7 | NCI-H358 | 0.732 | 0.514 | 0.516 | 0.575 | 0.561 | 0.496 | 0.227 | 0.175 | 0.188 | 0.483 | 0.474 | 0.538 | 0.485 | 0.543 | 0.359 | 0.77 | 0.259 | 0.409 | 0.222 | 0.481
8 | NCI-H1944 | 0.616 | 0.5 | 0.584 | 0.559 | 0.354 | 0.38 | 0.376 | 0.182 | 0.178 | 0.783 | 0.978 | 0.833 | 0.919 | 0.586 | 0.881 | 0.661 | 0.661 | 0.452 | 0.389 | 0.405
